Measured values as given in patent US11760761B2, “Methods and compositions for targeting PD-L1” (Aligos Therapeutics, Inc., priority 2020, dated 2023).

Tests used:
[1] = target: PDL1/PD1 (Homo sapiens (Human), UniProt Q9NZQ7); experiment: PDL1/PD1 Binding Assay; conditions: PDL1-6xHis 0.3 nM, PD1-Fc-Avi-Biotin 2.5 nM, Acceptor/Donor beads; read-out: PD-1/PD-L1 PPI IC50
Procedure: Compounds to be tested were serially diluted in DMSO, and further diluted in assay buffer (25 mM Hepes pH 7.4, 150 mM NaCl, 0.005% Tween 20, BSA 0.01%). Diluted compounds were added to the wells with final concentration of DMSO at 1%. PDL1-6×His protein was added to the wells, mixed well with compound. The plates were incubated for 30 min at room temperature. PD1-Fc-Avi-Biotin protein was added to the wells. Final concentration of PDL1 and PD1 protein is 0.3 nM and 2.5 nM, respectively. After a binding time of 30 min at room temperature, Anti-6×His Acceptor beads (final concentration 20 ug/ml) were added to the wells, and the incubation continued for 1 h. Streptavidin Donor beads (final concentration 20 ug/mL) were added at reduced light. The plates were sealed with foil and incubated in the dark for additional 1 h or overnight before reading on an Envision reader. The IC50 values were determined by fitting the curves using a four-parameter equation in Graphpad Prism 8.

[2] = target: PD-1/PD-L1 interaction (Homo sapiens (Human), UniProt Q9NZQ7); experiment: PD-1/PD-L1 NFAT Reporter Assay (Jurkat T cells / PD-L1 expressing CHO cells co-culture); assay type: cell-based; conditions: for EC50: co-culture 6 hrs at 37° C., luciferase; for Emax: Jurkat, maximum NFAT-activation level relative to the positive control (10 nM Atezolizumab)
Procedure: Blocking the PD-1/PD-L1 interaction will release the inhibitory signal and results in TCR signaling and NFAT-mediated luciferase activity.
CHO cells expressing surface-bound anti-CD3 antibodies and PD-L1 were first seeded overnight and treated with the compounds. Jurkat cells overexpressing PD-1 and a luciferase construct under NF-AT promoter were then immediately seeded on the monolayer of CHO cells. The co-culture was then incubated for 6 hrs at 37° C. Luciferase activity was assessed by adding the ONE-Glo reagent and measuring luminescence with a plate reader. EC50s values were determined from the fit of the dose-response curves Emax (%) corresponds to the maximum NFAT-activation level reached by a given compound relative to the positive control (10 nM Atezolizumab).

PDL1/PD1, sequence (Q9NZQ7 19-238): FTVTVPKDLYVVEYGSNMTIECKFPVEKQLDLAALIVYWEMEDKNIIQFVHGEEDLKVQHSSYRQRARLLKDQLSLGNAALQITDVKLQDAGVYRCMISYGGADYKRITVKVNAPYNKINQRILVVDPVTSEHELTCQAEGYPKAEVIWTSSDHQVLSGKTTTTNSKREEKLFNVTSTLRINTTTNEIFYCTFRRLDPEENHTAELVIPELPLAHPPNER
PD-1/PD-L1 interaction, sequence (Q9NZQ7 19-290): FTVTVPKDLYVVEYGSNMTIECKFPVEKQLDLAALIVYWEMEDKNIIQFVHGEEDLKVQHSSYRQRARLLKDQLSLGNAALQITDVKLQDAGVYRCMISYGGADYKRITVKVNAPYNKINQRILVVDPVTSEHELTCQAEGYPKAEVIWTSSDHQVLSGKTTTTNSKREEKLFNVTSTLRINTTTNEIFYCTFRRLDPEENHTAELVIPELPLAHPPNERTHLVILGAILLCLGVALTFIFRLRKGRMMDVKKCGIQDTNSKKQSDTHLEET

Row | SMILES | IC50 [1] [nM] | EC50 [2] [nM] | Emax [2] [%]
1 | COc1nc(-c2cccc(-c3cccc(-c4cc5c(c(OC)n4)C(N4CCC(F)(F)C4)CC5)c3Cl)c2Cl)cnc1CN1CC2(CCC(=O)N2)C1 (stereo not drawn) [Compound C-9] | ≤ 10 | 100 to 1000 | 
2 | COc1nc(-c2cccc(-c3cccc(-c4cc5c(c(OC)n4)C(NC4CN(C(C)=O)C4)CC5)c3Cl)c2Cl)cnc1CN1CC2(CCC(=O)N2)C1 (stereo not drawn) [Compound C-8] | ≤ 10 | 10 to 100 | 
3 | COc1nc(-c2cccc(-c3cccc(-c4cc5c(c(OC)n4)C(N4CCC(C(=O)O)CC4)CC5)c3Cl)c2Cl)cnc1CN1CC(O)C1 (stereo not drawn) [Compound F-3] | ≤ 10 | 10 to 100 | 
4 | COc1nc(-c2cccc(-c3cccc(-c4cc5c(c(OC)n4)[C@@H](N4CC6(CCC(=O)N6)C4)CC5)c3Cl)c2Cl)cnc1CN1CC2(CCC(=O)N2)C1 (single isomer, unassigned) [Compound C-3] | ≤ 10 | ≤ 10 | 
5 | COc1nc(-c2cccc(-c3cccc(-c4cc5c(c(OC)n4)[C@@H](NC[C@@H]4CCC(=O)N4)CC5)c3Cl)c2Cl)cnc1CN1CC2(CCCO2)C1 [Compound D-3] | ≤ 10 | ≤ 10 | 
6 | COc1nc(-c2cccc(-c3cccc(-c4cc5c(c(OC)n4)CCN(CC(=O)O)C5)c3Cl)c2Cl)cnc1CN1CC(C)(O)C1 [Compound J-2] | ≤ 10 | 10 to 100 | 
7 | COc1nc(-c2cccc(-c3cccc(-c4cc5c(c(OC)n4)[C@@H](NC[C@@H]4CCC(=O)N4)CC5)c3Cl)c2Cl)cnc1CNC[C@@H]1CCC(=O)N1 [Compound D-2] | ≤ 10 | ≤ 10 | 
8 | COc1nc(-c2cccc(-c3cccc(-c4cc5c(c(OC)n4)[C@H](N4CC(C(=O)O)C4)CC5)c3Cl)c2Cl)cnc1CN1CC(OC)C1 (single isomer, unassigned) [Compound H-4] | ≤ 10 | 100 to 1000 | 
9 | COc1cc(-c2cccc(-c3cccc(-c4cnc(CN5CC6(CCC(=O)N6)C5)c(OC)n4)c3Cl)c2Cl)cc2c1[C@@H](N1CC(O)C1)CC2 (single isomer, unassigned) [Compound A-5] | ≤ 10 | 100 to 1000 | 102
10 | COc1nc(-c2cccc(-c3cccc(-c4cc5c(c(OC)n4)[C@H](NC[C@@H]4CCC(=O)N4)CC5)c3Cl)c2Cl)cnc1CN1CC(O)C1 [Compound D-7] | ≤ 10 | 100 to 1000 | 
11 | CCOC(=O)C1CN([C@@H]2CCc3cc(-c4cccc(-c5cccc(-c6cnc(CN7CC8(CCC(=O)N8)C7)c(OC)n6)c5Cl)c4Cl)cc(OC)c32)C1 (single isomer, unassigned) [Compound A-4] | ≤ 10 |  | 18
12 | COc1nc(-c2cccc(-c3cccc(-c4cc5c(c(OC)n4)[C@H](N4CC(O)C4)CC5)c3Cl)c2Cl)cnc1CN1CC2(CCC(=O)N2)C1 (single isomer, unassigned) [Compound C-6] | ≤ 10 | 100 to 1000 | 
13 | COc1nc(-c2cccc(-c3cccc(-c4cc5c(c(OCC6CC6)n4)C(NC[C@@H]4CCC(=O)N4)CC5)c3Cl)c2Cl)cnc1CN1CC2(CCC(=O)N2)C1 (stereo partly drawn) [Compound C-14] | ≤ 10 | 10 to 100 | 
14 | COc1cc(-c2cccc(-c3cccc(-c4cnc(CN5CC6(CCC(=O)N6)C5)c(OC)n4)c3Cl)c2Cl)cc2c1C[C@@H](N1CC3(CCC(=O)N3)C1)C2 (single isomer, unassigned) [Compound A-12] | ≤ 10 | 10 to 100 | 191
15 | COc1nc(-c2cccc(-c3cccc(-c4cc5c(c(OC)n4)[C@H](N4CC6(CCC(=O)N6)C4)CC5)c3Cl)c2Cl)cnc1CN1CC2(CCC(=O)N2)C1 (single isomer, unassigned) [Compound C-4] | ≤ 10 | > 10000 | 
16 | COc1nc(-c2cccc(-c3cccc(-c4cc5c(c(OC)n4)[C@@H](NC[C@@H]4CCC(=O)N4)CC5)c3Cl)c2Cl)cnc1CN1CC(F)(F)C1 [Compound D-5] | ≤ 10 | 10 to 100 | 
17 | CCOC(=O)C1CN([C@@H]2CCc3cc(-c4cccc(-c5cccc(-c6cnc(CN7CC(OC)C7)c(OC)n6)c5Cl)c4Cl)nc(OC)c32)C1 (single isomer, unassigned) [Compound G-6] | ≤ 10 | 1000 to 10000 | 
